Test results: patent US20220387457A1 (Qlaris Bio, Inc., priority 2020, published 2022)
Entries after “also recorded” stand apart in the source; their conditions may differ.

Assays:
[1] = Plasma pharmacokinetics of CKLP1 and levcromakalim after topical dosing in hound dogs; type: in vivo, hound dog; details: for AUC(0-t) / Cmax / Tmax / half-life: plasma
Procedure: To assess the pharmacokinetic parameters, hound dogs (n=3) were treated with 50 μL topical ocular administration of 10 mM CKLP1 or vehicle (PBS) (n=2) in both eyes, once daily for eight days. Blood (approximately 3 mL) was collected in heparin blood collection tubes at eight different time points (5 minutes, 15 minutes, 30 minutes, 60 minutes, 2 hours, 4 hours, 8 hours and 24 hours) following treatment on days 1, 4 and 8. Plasma was separated from the blood by centrifugation at 2000 rpm for 5 minutes.
Immediately prior to analysis, tissues were thawed and their weight was measured. PBS was added at double the tissue volume homogenized in a rotor stator homogenizer for 30 seconds. […] Detection was accomplished using positive electrospray ionization with multiple-reaction monitoring (MRM). […] Data were acquired and analyzed using Waters MassLynx v4.1 software.

[2] = Plasma pharmacokinetics, 28-day topical ophthalmic dosing in beagle dogs; details: dog, in vivo
Procedure: In the study, dogs (3 males and 3 females) received bilateral daily topical administration of 40 μL/eye of 2.0%, 4.0%, or 8.0% as measured in mg/mL (equivalent to 0.8, 1.6, or 3.2 mg CKLP1 per eye) of CKLP1 in phosphate buffered saline. Based on an average male dog weight of 7.9 kg at the start of the study, these doses were equivalent to 0.20 mg/kg, 0.41 mg/kg, or 0.81 mg/kg and based on an average female dog weight of 6.0 kg at the start of the study, these doses were equivalent to 0.27 mg/kg, 0.53 mg/kg, or 1.07 mg/kg. Blood was collected for toxicokinetic analysis pre-dose and at 1, 2, 4, 8, 12, and 24 hours post dosing on days 1 and 28. In addition, 2 animals of each gender were allowed 336 hours (14 days) of recovery time following the final dose, at which point final blood samples were obtained.

[3] = target: T1, human Kir6.2/SUR2B KATP channel (Homo sapiens, UniProt O60706); test: FLIPR membrane potential assay in HEK-Kir6.2/SUR2B cells; type: cell-based
T1 construct: expressed in transfected cells
Procedure: The ability of CKLP1 and the active moiety of CKLP1, leveromakalim, to pharmacologically modulate the function of the human ATP-sensitive potassium channel comprised of Kir6.2 (encoded by the human gene KCNJ11) coupled to the sulfonylurea receptor SUR2B (encoded by the human gene ABCC9) was studied.
Compounds were dissolved up to 10 mM stock solution in DMSO. Ten-point concentration response curves were generated at 100× concentration in 100% DMSO. Compound source plates were made by serially diluting 10 mM compound stocks in DMSO to generate a progressive semilog dilution schema. Dose response stock plate (10 μL) were then transferred into assay plates containing 90 μL of assay buffer, generating 10× working concentrations. Final assay test concentration ranges of 100 μM to 0.003 μM with a final DMSO concentration of 1.0%.
Human embryonic kidney (HEK) cells stably expressing human Kir6.2/SUR2B KATP channel subunits were plated onto 96 well, black poly-d-lysine (PDL)-coated microplates and maintained in growth media the day prior to use for experiments. Media was removed from the plates and 90 μL of 1× stock of the membrane potential sensitive fluorescent dye FMP-Blue resuspended in assay buffer (EBSS—in mM: NaCl 145, KCl 2, Glucose 5, CaCl2) 1.8, MgCl2 0.8, HEPES 10, pH 7.4 with NaOH, 290-300 mOSm) was added to the cells. Cells were incubated at room temperature, protected from light, for 45-60 minutes. After the incubation period, cell, test compound and glibenclamide plates were loaded onto the fluorescence plate reader (FLIPR-TETRA™) and the scanning initiated. The FLIPR measured a 10 second baseline and then added 10 μL of 10× the final desired concentration of test agent. Changes in fluorescence were monitored for an additional 5 minutes. After the 5-minute compound incubation, 10 μL of the receptor inhibitor glibenclamide was added to the cell plate (10 uM final glibenclamide concentration). Changes in fluorescence was then monitored for an additional 5 minutes.
Compound modulation of Kir6.2/SUR2B KATP channel mediated changes in cellular membrane potential was determined as follows. After the administration of compound, FMP fluorescence was monitored for a 5-minute period. The following parameters were recorded and exported from the FLIPR: the average relative fluorescence response (RFU) of 5 images taken at the 5-minute point in the assay with the average background EBSS buffer response subtracted. […] Test agent effect was calculated as % activation using the following formula: […]
Curve fits were performed in GraphPad Prism graphing software using a 4-parameter, variable slope fit equation.

[4] = CKLP1, topical 10 mM CKLP1 once daily, Day 1
[5] = CKLP1, topical 10 mM CKLP1 once daily, Day 4
[6] = CKLP1, topical 10 mM CKLP1 once daily, Day 8
[7] = hound, dog, topical or ocular, 10 mM CKLP1, 50 µL in each of both eyes, CKLP1, topical 10 mM CKLP1 once daily, Day 1
[8] = hound, dog, topical or ocular, 10 mM CKLP1, 50 µL in each of both eyes, CKLP1, topical 10 mM CKLP1 once daily, Day 4
[9] = hound, dog, topical or ocular, 10 mM CKLP1, 50 µL in each of both eyes, CKLP1, topical 10 mM CKLP1 once daily, Day 8
[10] = female, beagle, topical or ocular, 0.27 mg/kg
[11] = female, beagle, topical or ocular, 1.07 mg/kg
[12] = female, beagle, topical or ocular, […]
[13] = male, beagle, topical or ocular, 0.2 mg/kg
[14] = male, beagle, topical or ocular, 0.41 mg/kg
[15] = male, beagle, topical or ocular, 0.81 mg/kg

T1 sequence (O60706 1-1549 isoform O60706-2): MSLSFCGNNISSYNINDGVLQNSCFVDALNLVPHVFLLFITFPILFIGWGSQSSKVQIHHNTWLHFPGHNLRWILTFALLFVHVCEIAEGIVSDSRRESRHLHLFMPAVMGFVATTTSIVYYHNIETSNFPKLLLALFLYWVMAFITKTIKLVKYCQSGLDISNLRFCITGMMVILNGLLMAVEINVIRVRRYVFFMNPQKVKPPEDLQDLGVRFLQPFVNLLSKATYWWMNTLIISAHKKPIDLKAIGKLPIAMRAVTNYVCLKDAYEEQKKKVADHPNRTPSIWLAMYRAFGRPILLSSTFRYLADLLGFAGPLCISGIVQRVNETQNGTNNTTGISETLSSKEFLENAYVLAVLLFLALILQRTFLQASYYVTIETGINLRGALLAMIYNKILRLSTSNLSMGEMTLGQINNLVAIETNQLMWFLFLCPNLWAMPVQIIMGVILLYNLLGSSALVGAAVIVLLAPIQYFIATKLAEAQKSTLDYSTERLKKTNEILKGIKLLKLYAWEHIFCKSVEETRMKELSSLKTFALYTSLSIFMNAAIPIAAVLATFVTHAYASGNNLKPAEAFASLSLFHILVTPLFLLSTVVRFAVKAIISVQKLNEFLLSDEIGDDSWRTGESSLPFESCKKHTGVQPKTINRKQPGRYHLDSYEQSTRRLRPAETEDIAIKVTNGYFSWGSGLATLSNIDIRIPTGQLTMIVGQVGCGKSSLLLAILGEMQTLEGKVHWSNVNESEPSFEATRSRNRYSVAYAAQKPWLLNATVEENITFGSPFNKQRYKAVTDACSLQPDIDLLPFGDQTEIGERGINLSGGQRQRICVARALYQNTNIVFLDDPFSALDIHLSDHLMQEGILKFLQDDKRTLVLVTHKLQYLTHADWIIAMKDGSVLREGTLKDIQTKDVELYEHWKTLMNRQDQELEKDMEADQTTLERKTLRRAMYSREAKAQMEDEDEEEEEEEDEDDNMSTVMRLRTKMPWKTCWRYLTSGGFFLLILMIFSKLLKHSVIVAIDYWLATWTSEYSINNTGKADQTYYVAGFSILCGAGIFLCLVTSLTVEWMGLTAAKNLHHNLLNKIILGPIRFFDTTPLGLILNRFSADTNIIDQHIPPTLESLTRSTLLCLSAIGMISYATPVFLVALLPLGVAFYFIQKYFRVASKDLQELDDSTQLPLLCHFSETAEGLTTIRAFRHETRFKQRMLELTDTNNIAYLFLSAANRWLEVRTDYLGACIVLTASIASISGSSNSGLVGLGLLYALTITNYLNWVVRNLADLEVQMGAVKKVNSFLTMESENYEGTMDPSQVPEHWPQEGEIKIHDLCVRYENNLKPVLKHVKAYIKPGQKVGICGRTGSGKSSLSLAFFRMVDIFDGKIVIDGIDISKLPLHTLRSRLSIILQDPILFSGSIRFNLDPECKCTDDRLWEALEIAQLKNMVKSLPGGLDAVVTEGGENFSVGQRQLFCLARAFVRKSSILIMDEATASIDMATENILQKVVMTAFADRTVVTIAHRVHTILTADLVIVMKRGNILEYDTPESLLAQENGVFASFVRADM
T1 sequence (Q14654 whole entry partner): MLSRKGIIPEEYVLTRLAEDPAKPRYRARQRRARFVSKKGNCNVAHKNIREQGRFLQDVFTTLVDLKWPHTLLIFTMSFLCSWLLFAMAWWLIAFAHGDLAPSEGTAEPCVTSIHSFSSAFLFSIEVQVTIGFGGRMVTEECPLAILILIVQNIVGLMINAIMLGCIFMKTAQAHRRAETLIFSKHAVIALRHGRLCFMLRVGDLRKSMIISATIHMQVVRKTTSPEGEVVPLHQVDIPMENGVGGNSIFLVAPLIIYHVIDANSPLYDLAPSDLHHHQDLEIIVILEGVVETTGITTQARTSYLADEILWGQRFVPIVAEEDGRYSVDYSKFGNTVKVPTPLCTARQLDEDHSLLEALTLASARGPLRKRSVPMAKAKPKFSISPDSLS

Work on `CC1(C)Oc2ccc(C#N)cc2[C@@H](N2CCCC2=O)[C@@H]1OP(=O)(O)O` [CKLP1] yielded a Clast [1, 4] of 0.0026 µg/mL, a Tlast [1, 4] of 480 min and a Clast [1, 5] of 0.0014 µg/mL. For the same compound, the Tlast [1, 5] was 1440 min, the Clast [1, 6] was 0.0003 µg/mL and the Tlast [1, 6] was 1450 min. For the same compound, the AUC(0-t) [1, 7] was 0.0729 µg·h/mL, the Cmax [1, 7] was 0.0103 µg/mL and the Tmax ([1]; hound, dog, topical or ocular, 10 mM CKLP1, 50 µL in each of both eyes, CKLP1, topical 10 mM CKLP1 once daily, Day 1, read-out: Tmax (converted)) was 1 h. It also gave an AUC(0-t) [1, 8] of 0.103 µg·h/mL, a Cmax [1, 8] of 0.0122 µg/mL and a Tmax ([1]; hound, dog, topical or ocular, 10 mM CKLP1, 50 µL in each of both eyes, CKLP1, topical 10 mM CKLP1 once daily, Day 4, read-out: Tmax (converted)) of 2 h. It also gave an AUC(0-t) [1, 9] of 0.0867 µg·h/mL, a Cmax [1, 9] of 0.0089 µg/mL and a Tmax ([1]; hound, dog, topical or ocular, 10 mM CKLP1, 50 µL in each of both eyes, CKLP1, topical 10 mM CKLP1 once daily, Day 8, read-out: Tmax (converted)) of 1 h. It also gave a half-life ([1]; hound, dog, topical or ocular, 10 mM, CKLP1, topical 10 mM CKLP1 once daily, Day 1) of 3.01 h, a half-life ([1]; hound, dog, topical or ocular, 10 mM, CKLP1, topical 10 mM CKLP1 once daily, Day 4) of 7.53 h and a half-life ([1]; hound, dog, topical or ocular, 10 mM, CKLP1, topical 10 mM CKLP1 once daily, Day 8) of 4.23 h. For the same compound, the Tmax ([1]; hound, dog, topical or ocular, 10 mM, topical 10 mM CKLP1, read-out: time of maximum concentration (Tmax) of CKLP1) was at most 1 h, the AUC ([1]; hound, dog, topical or ocular, CKLP1 in plasma, topical 10 mM CKLP1) was 0.0877 µg·h/mL and the “AUC of CKLP1 relative to levcromakalim” value ([1]; topical 10 mM CKLP1) was 22.4 fold. The “Maximum concentration of CKLP1 in plasma” value ([1]; topical 10 mM CKLP1, mean of days 1, 4, 8) was 10.5 ± 1.7 ng/mL, the “conversion of CKLP1 to levcromakalim, estimate from blood concentrations” value ([1]; topical CKLP1) was 10% and the half-life ([2]; beagle, mean T1/2 of CKLP1) was 3.32 to 6.18 h. For the same compound, the half-life ([2]; beagle, terminal elimination half-life) was 3 to 6 h, the concentration at 336 h ([2]; both sexes, beagle) was under 0.002 µg/mL and the “predose levels of CKLP1 on day 28, times lower than peak plasma concentrations” value ([2]; both, beagle) was 16-25 times. For the same compound, the “accumulation of CKLP1 on day 28 relative to day 1” value [2] was “no accumulation”, the “time of Cmax of CKLP1” value [2] was 1 to 2 h and the AUC0-last [2, 10] was 0.545 µg·h/mL. For the same compound, the AUC(0-inf) [2, 10] was 0.66 µg·h/mL, the Cmax [2, 10] was 0.0802 µg/mL and the Tmax [2, 10] was 2 h. It also gave a t1/2 [2, 10] of 3.68 h, an AUC(0-t) ([2]; female, beagle, topical or ocular, 0.27 mg/kg, AUC0-last) of 0.496 µg·h/mL and a Cmax ([2]; female, beagle, topical or ocular, 0.27 mg/kg, Cmax) of 0.0555 µg/mL. For the same compound, the half-life ([2]; female, beagle, topical or ocular, 0.27 mg/kg, t1/2) was 4.12 h, the AUC0-last [2, 11] was 1.2 µg·h/mL and the AUC(0-inf) [2, 11] was 1.86 µg·h/mL. It also gave a Cmax [2, 11] of 0.139 µg/mL, a Tmax [2, 11] of 2 h and a t1/2 [2, 11] of 5.15 h. It also gave an AUC(0-t) ([2]; female, beagle, topical or ocular, 1.07 mg/kg, AUC0-last) of 1.48 µg·h/mL, a Cmax ([2]; female, beagle, topical or ocular, 1.07 mg/kg, Cmax) of 0.156 µg/mL and a half-life ([2]; female, beagle, topical or ocular, 1.07 mg/kg, t1/2) of 4.92 h. It also gave an AUC0-last [2, 12] of 1.75 µg·h/mL, a Tmax [2, 12] of 2 h and a half-life ([2]; female, beagle, topical or ocular, […], t1/2) of 6.18 h. For the same compound, the AUC0-last [2, 13] was 0.272 µg·h/mL, the AUC(0-inf) [2, 13] was 0.299 µg·h/mL and the Cmax [2, 13] was 0.047 µg/mL. It also gave a Tmax [2, 13] of 1 h, a t1/2 [2, 13] of 3.44 h and an AUC(0-t) ([2]; male, beagle, topical or ocular, 0.2 mg/kg, AUC0-last) of 0.231 µg·h/mL. It also gave a Cmax ([2]; male, beagle, topical or ocular, 0.2 mg/kg, Cmax) of 0.0365 µg/mL, a half-life ([2]; male, beagle, topical or ocular, 0.2 mg/kg, t1/2) of 3.69 h and an AUC0-last [2, 14] of 0.381 µg·h/mL. The AUC(0-inf) [2, 14] was 0.571 µg·h/mL, the Cmax [2, 14] was 0.0573 µg/mL and the Tmax [2, 14] was 1 h. It also gave a t1/2 [2, 14] of 3.32 h, an AUC(0-t) ([2]; male, beagle, topical or ocular, 0.41 mg/kg, AUC0-last) of 0.52 µg·h/mL and a Cmax ([2]; male, beagle, topical or ocular, 0.41 mg/kg, Cmax) of 0.0737 µg/mL. The half-life ([2]; male, beagle, topical or ocular, 0.41 mg/kg, t1/2) was 4.26 h, the AUC0-last [2, 15] was 1.26 µg·h/mL and the AUC(0-inf) [2, 15] was 1.58 µg·h/mL. It also gave a Tmax [2, 15] of 2 h, a t1/2 [2, 15] of 5.08 h and an AUC(0-t) ([2]; male, beagle, topical or ocular, 0.81 mg/kg, AUC0-last) of 1.52 µg·h/mL. For the same compound, the Cmax ([2]; male, beagle, topical or ocular, 0.81 mg/kg, CKLP1, Male, topical 8.0% CKLP1 daily, Day 1, read-out: Cmax) was 0.166 µg/mL, the Cmax ([2]; male, beagle, topical or ocular, 0.81 mg/kg, CKLP1, Male, topical 8.0% CKLP1 daily, Day 28, read-out: Cmax) was 0.147 µg/mL and the half-life ([2]; male, beagle, topical or ocular, 0.81 mg/kg, t1/2) was 4.82 h. For the same compound, the Cmax ([2]; male, beagle, topical or ocular, 8 %, day 28, males, read-out: mean Cmax at NOAEL) was 0.147 µg/mL, the AUC(0-t) ([2]; male, beagle, topical or ocular, 8.0%, day 28, males, read-out: mean AUC Tlast at NOAEL) was 1.26 µg·h/mL and the EC50 ([3]; ability to modulate KATP channel, HEK-Kir6.2/SUR2B cells, normalized to 100 uM pinacidil, read-out: EC50 (μM) (mean ± SEM)) was over 100 µM. For the same compound, the Emax at 100 µM ([3]; read-out: maximal response, % activation) was 9.4% and the “hyperpolarization / activation of Kir6.2/SUR2B KATP channels” value ([3]; up to 100 μM) was “did not result in any significant hyperpolarization; also recorded: failed to produce any significant activation”.
